In US20100222293A1, “MODULATION OF SPERM MOTILITY” (priority 2007, published 2010):

Test system: sperm from asthenozoospermic subjects
Experiment: Sperm motility parameters after incubation with extracellular ATP (automated cell motility analyzer)
Type: cell-based, human
Settings: 2.5 mM ATP, 60 minutes
Experimental: Semen samples were collected after 3 days of sexual abstinence in sterile containers. After liquefaction at room temperature for 30 minutes, standard seminal parameters were examined according to the WHO laboratory manual [supra]. For sperm movement analysis, a semen aliquot (10 μl) was placed in a Makler chamber, ten different fields per chamber were randomly examined, and at least 100 sperm for each field of the chamber were scored. Percentages of motile sperm and movement characteristics were analysed using an automated analyzer at 37° C. (CellTrack VP110, Motion Analysis Corporation, Palo Alto, Calif., USA). Sperm velocity and kinetic parameters were evaluated for only motile sperm and were expressed as mean values. Standard deviations were calculated and P values of significance were determined by the Student's t-test. The following sperm parameters were determined: curvilinear velocity (VCL) (also referred to as track speed and is the velocity (in μm/sec) of a sperm along individual tracks; straight progressive velocity (VSL) (the average velocity (in μm/sec) measured in a straight line from the beginning to the end of track); amplitude of lateral head displacement (ALH) (mean width (in μm) of sperm head oscillation); and linearity coefficient (LIN=VSL/VCL×100) (the degree (in %) of straightness of the sperm track). To analyze the effects of extracellular ATP on motility parameters of sperm from the asthenozoospermic subjects, sperm samples from the subjects were washed once by the addition of BWW medium (Biggers-Whitten-Whittingham medium; 95 mM NaCl, 4.8 mM KCl, 1.7 mM CaCl2, 1.2 mM KH2PO4, 1.2 MgSO4, 25 NaHCO3, 5.6 mM fructose, 0.25 mM sodium pyruvate, 3.7 ml/l 60% sodium lactate syrup, 10^4 IU/ml penicillin, and 10 mg/ml streptomycin) and centrifugation at 800×g for 10 minutes. After centrifugation and discarding of the supernatant, the sperm pellets were suspended in BWW medium (at a concentration of 10×10^6 sperm/ml), divided into two equivalent aliquots, and allowed to recover for 15 minutes. One aliquot was then incubated at 37° C. with ATP (2.5 mM final concentration from a 100 mM stock solution made by diluting ATP with physiological solution (0.9% NaCl in distilled water) and the second aliquot was incubated at 37° C. with same amount of physiological solution only (as a negative control). After 60 minutes incubation, sperm motility parameters were determined as described above. The effects of extracellular ATP on sperm motility parameters of sperm from subjects with asthenozoospermia after washing from seminal fluid and resuspension in BWW medium (10×10^6 sperm/ml) were examined.

Q: How did the “effect on curvilinear velocity (VCL)” value turn out when `Nc1ncnc2c1ncn2[C@@H]1O[C@H](COP(=O)(O)OP(=O)(O)OP(=O)(O)O)[C@@H](O)[C@H]1O` [ATP, adenosine 5′-triphosphate] was run?
A: No significant effects

Q: And the “effect on lateral sperm head displacement (ALH)” value?
A: No significant effects

Q: And the “progressive velocity (VSL)” value (37° C., washed sperm in BWW medium, 27 asthenozoospermic subjects, control 23.81±6.04, p=0.0024)?
A: 28.85±7.27 μm/sec

Q: What about the “linearity (LIN)” value (37° C., washed sperm in BWW medium, control 29.59±6.25, p=0.0004) of the same compound?
A: 37.7±7.9
